What all share (format): cell-based
Holding throughout (set-up): key: 5: five indicated growth equal to the water control; 1: a rating of one indicated the complete absence of growth; Index values two (2) through four (4) represent intermediate levels of sporulation and growth; 3: Index values two (2) through four (4) represent intermediate levels of sporulation and growth; Index values two (2) through four (4) represent intermediate levels of sporulation and growth; zero (0) indicates a failed or unnecessary test
Conditions in all cases: chemical control, all independent replicated tests

One test has as its system Alternaria brassisicola. As to the kind of experiment: agar overlay plant pathogen growth assay, ABRA. As for the experimental part:
(§1) The novel Streptomyces galbus strain was grown for testing against plant pathogens in the following manner. The isolated microbe was initially fermented in three distinct actinomycete cultivation media. Media 38 was composed of 2 g/L tomato paste, 2 g/L oat flour, and 1.0 g/L sea salts. Media 31 was composed of 45 g/L oat flour, 2 g/L yeast extract, 6 g/L KH2PO4, and 4.8 g/L Na2HPO4, pH 7. Media 6 was composed of 20 g/L soluble starch, 10 g/L dextrose, 5 g/L yeast extract, 5 g/L N-Z amineA, and 1 g/L CaCO3.
(§2) The microbe was picked from tomato-oat flour agar (2 g/L tomato paste, 2 g/L oat flour, and 20 g/L agar) and introduced to 50 ml conical tubes containing 12 ml of sterile fermentation media capped with a foam plug. The inoculated tubes were incubated at 27±3° C., in an orbital shaker for six days. […]
(§3) The following pathogen/chemical pairs were tested: Alternaria brassisicola (ABRA Benomyl), Botrytris cinerea (BOTC/Benomyl), Monilinuafructicola (MONF/Benomyl), Phytophthora capsici (PCAP/Metalaxyl), Pseudomonas syringae (PSTO/Gentamycin), and Colletotrichum coccoides (COLC/Chlorothalonil). […] The chemical controls scored index ratings of one (1) in all of the independent replicated tests; and media blanks had ratings of five (5).

A further test concerns Botrytris cinerea. Nature of the test: agar overlay plant pathogen growth assay, BOTC. As for the experimental part:
as §1, §2, §3

The subject of a further test is Monilinuafructicola. Nature of the test: agar overlay plant pathogen growth assay, MONF. As for the experimental part: as §1, §2, §3
The next test relates to Colletotrichum coccoides. Nature of the test: agar overlay plant pathogen growth assay, COLC. As for the experimental part:
as §1, §2, §3

The next test relates to Phytophthora capsici. Nature of the test: agar overlay plant pathogen growth assay, PCAP. As for the experimental part:
as §1, §2, §3

The next test has as its system Pseudomonas syringae. As to the kind of experiment: agar overlay plant pathogen growth assay, PSTO. As for the experimental part: as §1, §2, §3

This note sets out measurements from US6682925B1, “Streptomyces strain with insecticidal activity and method of using as an insecticide” (priority 2000, dated 2004).

Turning to `CCCCNC(=O)n1c(NC(=O)OC)nc2ccccc21` [Benomyl], the “ABRA pathogen growth index rating” value with Alternaria brassisicola is 1. Also, the “BOTC pathogen growth index rating” value in the test on Botrytris cinerea was found to be 1. In addition, the “MONF pathogen growth index rating” value in the test on Monilinuafructicola is recorded as 1. As for `N#Cc1c(Cl)c(Cl)c(Cl)c(C#N)c1Cl` [Chlorothalonil], the “COLC pathogen growth index rating” value in the test with Colletotrichum coccoides was 1. As for `COCC(=O)N(c1c(C)cccc1C)C(C)C(=O)OC` (stereo not drawn) [Metalaxyl], the “PCAP pathogen growth index rating” value in the test with Phytophthora capsici was 1. As for Gentamycin, the “PSTO pathogen growth index rating” value in the test on Pseudomonas syringae is reported as 1.
